ChEMBL document CHEMBL5303768, “Data for DCP probe TP-060” (2023)
Activity calls are given as the source filed them. The rule behind the calls is not given here.

How the values were obtained:
[1] = (§1) Safety47 Scan (DiscoverX - Eurofins); set-up: species or system Rattus norvegicus
[2] = biological target: Voltage-dependent L-type calcium channel subunit alpha-1C (Homo sapiens, UniProt Q13936); experiment: as §1; set-up: species or system Rattus norvegicus; details: target entry is the homologue from another species
[3] = biological target: T1, Ceramide glucosyltransferase (Homo sapiens, UniProt Q16739); experiment: Cellular GlcCer reduction; type: functional, tissue-based, fibroblast
T1 sequence (Q16739 whole entry): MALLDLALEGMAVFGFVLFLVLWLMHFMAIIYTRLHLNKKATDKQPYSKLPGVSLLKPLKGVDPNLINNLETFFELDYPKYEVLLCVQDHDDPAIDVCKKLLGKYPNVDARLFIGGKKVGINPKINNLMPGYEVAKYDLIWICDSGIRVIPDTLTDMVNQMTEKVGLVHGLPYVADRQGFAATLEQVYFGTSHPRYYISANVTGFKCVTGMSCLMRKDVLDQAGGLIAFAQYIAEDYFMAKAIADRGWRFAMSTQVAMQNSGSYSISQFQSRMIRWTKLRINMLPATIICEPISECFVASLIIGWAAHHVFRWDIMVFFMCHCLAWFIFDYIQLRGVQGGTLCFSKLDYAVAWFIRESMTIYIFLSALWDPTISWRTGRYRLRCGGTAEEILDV

[4] = biological target: Beta-2 adrenergic receptor (Homo sapiens, UniProt P07550); experiment: as §1
[5] = biological target: Sodium-dependent dopamine transporter (Homo sapiens, UniProt Q01959); experiment: as §1
[6] = biological target: Muscarinic acetylcholine receptor M2 (Homo sapiens, UniProt P08172); experiment: as §1
[7] = biological target: Muscarinic acetylcholine receptor M1 (Homo sapiens, UniProt P11229); experiment: as §1
[8] = biological target: 5-hydroxytryptamine receptor 3A (Homo sapiens, UniProt P46098); experiment: as §1
Androgen receptor = Androgen receptor (Homo sapiens, UniProt P10275); experiment: as §1
[9] = biological target: 5-hydroxytryptamine receptor 2A (Homo sapiens, UniProt P28223); experiment: as §1
[10] = biological target: cGMP-inhibited 3',5'-cyclic phosphodiesterase 3A (Homo sapiens, UniProt Q14432); experiment: as §1
[11] = biological target: Cholecystokinin receptor type A (Homo sapiens, UniProt P32238); experiment: as §1
[12] = biological target: Tyrosine-protein kinase Lck (Homo sapiens, UniProt P06239); experiment: as §1
[13] = biological target: Sodium-dependent noradrenaline transporter (Homo sapiens, UniProt P23975); experiment: as §1
Vasopressin V1a receptor = Vasopressin V1a receptor (Homo sapiens, UniProt P37288); experiment: as §1
D(1A) dopamine receptor = D(1A) dopamine receptor (Homo sapiens, UniProt P21728); experiment: as §1
Histamine H2 receptor = Histamine H2 receptor (Homo sapiens, UniProt P25021); experiment: as §1
Cannabinoid receptor 1 = Cannabinoid receptor 1 (Homo sapiens, UniProt P21554); experiment: as §1
[14] = biological target: Amine oxidase [flavin-containing] A (Rattus norvegicus, UniProt P21396); experiment: as §1
Glucocorticoid receptor = Glucocorticoid receptor (Homo sapiens, UniProt P04150); experiment: as §1
[15] = biological target: Alpha-1A adrenergic receptor (Homo sapiens, UniProt P35348); experiment: as §1
[16] = biological target: Rho-associated protein kinase 1 (Homo sapiens, UniProt Q13464); experiment: as §1
[17] = biological target: Beta-1 adrenergic receptor (Homo sapiens, UniProt P08588); experiment: as §1
[18] = biological target: Prostaglandin G/H synthase 2 (Homo sapiens, UniProt P35354); experiment: as §1
[19] = biological target: Kappa-type opioid receptor (Homo sapiens, UniProt P41145); experiment: as §1
D(2) dopamine receptor = D(2) dopamine receptor (Homo sapiens, UniProt P14416); experiment: as §1
[20] = biological target: Voltage-gated inwardly rectifying potassium channel KCNH2 (Homo sapiens, UniProt Q12809); experiment: as §1
[21] = biological target: Prostaglandin G/H synthase 1 (Homo sapiens, UniProt P23219); experiment: as §1
Adenosine receptor A2a = Adenosine receptor A2a (Homo sapiens, UniProt P29274); experiment: as §1
[22] = biological target: Vascular endothelial growth factor receptor 2 (Homo sapiens, UniProt P35968); experiment: as §1
Insulin receptor = Insulin receptor (Homo sapiens, UniProt P06213); experiment: as §1
[23] = biological target: Alpha-2A adrenergic receptor (Homo sapiens, UniProt P08913); experiment: as §1
Cannabinoid receptor 2 = Cannabinoid receptor 2 (Homo sapiens, UniProt P34972); experiment: as §1
[24] = biological target: Muscarinic acetylcholine receptor M3 (Homo sapiens, UniProt P20309); experiment: as §1
[25] = biological target: Sodium channel protein type 5 subunit alpha (Homo sapiens, UniProt Q14524); experiment: as §1
[26] = biological target: 5-hydroxytryptamine receptor 2B (Homo sapiens, UniProt P41595); experiment: as §1
[27] = biological target: 3',5'-cyclic-AMP phosphodiesterase 4D (Homo sapiens, UniProt Q08499); experiment: as §1
[28] = biological target: 5-hydroxytryptamine receptor 1A (Homo sapiens, UniProt P08908); experiment: as §1
[29] = biological target: Delta-type opioid receptor (Homo sapiens, UniProt P41143); experiment: as §1
Acetylcholinesterase = Acetylcholinesterase (Homo sapiens, UniProt P22303); experiment: as §1
Endothelin-1 receptor = Endothelin-1 receptor (Homo sapiens, UniProt P25101); experiment: as §1
[30] = biological target: 5-hydroxytryptamine receptor 1B (Homo sapiens, UniProt P28222); experiment: as §1
Histamine H1 receptor = Histamine H1 receptor (Homo sapiens, UniProt P35367); experiment: as §1
Mu-type opioid receptor = Mu-type opioid receptor (Homo sapiens, UniProt P35372); experiment: as §1
[31] = biological target: Glutamate NMDA receptor; GRIN1/GRIN2B (Homo sapiens, UniProt Q05586+Q13224); experiment: as §1; type: protein-complex assay, Rattus norvegicus; details: target entry is the homologue from another species
[32] = biological target: Neuronal acetylcholine receptor; alpha4/beta2 (Homo sapiens, UniProt P17787+P43681); experiment: as §1; type: protein-complex assay
[33] = biological target: Voltage-gated potassium channel, IKs; KCNQ1(Kv7.1)/KCNE1(MinK) (Homo sapiens, UniProt P15382+P51787); experiment: as §1; type: protein-complex assay
[34] = biological target: Ceramide glucosyltransferase (Mus musculus, UniProt O88693); experiment: Mouse GCS enzymatic assay; type: functional
[35] = biological target: T1, Ceramide glucosyltransferase; experiment: Human GCS enzymatic assay; type: functional

Glutamate NMDA receptor; GRIN1/GRIN2B, sequence (Q13224 whole entry, other chains not shown): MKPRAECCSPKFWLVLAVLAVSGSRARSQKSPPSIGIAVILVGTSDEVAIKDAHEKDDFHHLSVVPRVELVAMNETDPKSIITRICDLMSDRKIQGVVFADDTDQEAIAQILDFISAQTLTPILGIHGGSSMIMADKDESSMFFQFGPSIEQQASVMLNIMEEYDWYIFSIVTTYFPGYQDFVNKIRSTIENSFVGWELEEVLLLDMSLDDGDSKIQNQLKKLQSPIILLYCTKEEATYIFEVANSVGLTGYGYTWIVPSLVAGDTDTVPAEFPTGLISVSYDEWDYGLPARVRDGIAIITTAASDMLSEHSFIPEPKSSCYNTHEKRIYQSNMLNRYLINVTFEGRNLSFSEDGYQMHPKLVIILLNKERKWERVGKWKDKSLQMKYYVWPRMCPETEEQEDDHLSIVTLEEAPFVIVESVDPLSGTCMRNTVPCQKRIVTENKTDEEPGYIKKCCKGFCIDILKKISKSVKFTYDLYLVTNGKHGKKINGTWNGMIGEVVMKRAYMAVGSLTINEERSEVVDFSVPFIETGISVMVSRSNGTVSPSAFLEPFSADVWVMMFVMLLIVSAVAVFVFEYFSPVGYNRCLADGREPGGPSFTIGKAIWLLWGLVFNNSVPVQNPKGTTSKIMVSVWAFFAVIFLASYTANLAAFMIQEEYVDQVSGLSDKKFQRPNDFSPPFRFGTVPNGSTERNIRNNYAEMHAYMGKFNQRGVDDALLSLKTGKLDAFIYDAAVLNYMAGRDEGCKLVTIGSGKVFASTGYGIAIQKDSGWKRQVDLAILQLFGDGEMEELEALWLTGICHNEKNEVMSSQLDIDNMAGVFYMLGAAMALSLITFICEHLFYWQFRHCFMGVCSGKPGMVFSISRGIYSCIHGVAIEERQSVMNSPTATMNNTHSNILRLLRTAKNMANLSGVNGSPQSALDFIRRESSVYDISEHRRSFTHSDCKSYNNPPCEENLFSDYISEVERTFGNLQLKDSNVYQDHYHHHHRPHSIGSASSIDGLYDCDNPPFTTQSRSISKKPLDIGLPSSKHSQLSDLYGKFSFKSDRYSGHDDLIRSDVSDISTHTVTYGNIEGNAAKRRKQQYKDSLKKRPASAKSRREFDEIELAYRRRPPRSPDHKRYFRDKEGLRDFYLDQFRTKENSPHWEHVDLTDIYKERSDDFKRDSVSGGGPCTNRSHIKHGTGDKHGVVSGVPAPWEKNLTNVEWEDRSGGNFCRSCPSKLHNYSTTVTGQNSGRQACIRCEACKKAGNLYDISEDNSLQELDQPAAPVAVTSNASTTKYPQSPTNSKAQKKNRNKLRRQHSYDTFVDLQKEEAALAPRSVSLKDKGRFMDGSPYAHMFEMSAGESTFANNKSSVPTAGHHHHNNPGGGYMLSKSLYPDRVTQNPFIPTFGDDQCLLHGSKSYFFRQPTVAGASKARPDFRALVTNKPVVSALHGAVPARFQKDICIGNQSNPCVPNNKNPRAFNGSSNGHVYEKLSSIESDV
5-hydroxytryptamine receptor 1A, sequence (P08908 whole entry): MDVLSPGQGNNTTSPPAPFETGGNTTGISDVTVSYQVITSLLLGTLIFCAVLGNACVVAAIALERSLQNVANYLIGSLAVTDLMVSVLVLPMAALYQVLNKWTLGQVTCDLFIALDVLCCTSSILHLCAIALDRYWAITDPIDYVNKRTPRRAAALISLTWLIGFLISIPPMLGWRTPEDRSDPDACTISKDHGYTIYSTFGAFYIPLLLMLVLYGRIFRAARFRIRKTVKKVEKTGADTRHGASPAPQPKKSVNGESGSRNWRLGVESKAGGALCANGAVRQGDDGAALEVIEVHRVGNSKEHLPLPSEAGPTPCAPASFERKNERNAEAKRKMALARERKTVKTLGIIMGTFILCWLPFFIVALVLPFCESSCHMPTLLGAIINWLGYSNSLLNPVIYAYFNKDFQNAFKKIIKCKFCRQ
5-hydroxytryptamine receptor 1B, sequence (P28222 whole entry): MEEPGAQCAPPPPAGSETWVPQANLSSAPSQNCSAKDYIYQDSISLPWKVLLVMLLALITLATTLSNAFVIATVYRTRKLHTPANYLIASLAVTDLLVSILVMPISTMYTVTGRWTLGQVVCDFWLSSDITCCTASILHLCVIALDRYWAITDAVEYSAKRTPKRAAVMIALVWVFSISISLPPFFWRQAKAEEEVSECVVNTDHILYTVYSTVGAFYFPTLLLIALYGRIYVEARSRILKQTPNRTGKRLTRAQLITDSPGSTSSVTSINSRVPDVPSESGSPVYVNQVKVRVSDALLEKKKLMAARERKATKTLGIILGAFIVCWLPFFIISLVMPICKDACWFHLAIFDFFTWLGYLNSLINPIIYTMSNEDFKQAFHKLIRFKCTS
Delta-type opioid receptor, sequence (P41143 whole entry): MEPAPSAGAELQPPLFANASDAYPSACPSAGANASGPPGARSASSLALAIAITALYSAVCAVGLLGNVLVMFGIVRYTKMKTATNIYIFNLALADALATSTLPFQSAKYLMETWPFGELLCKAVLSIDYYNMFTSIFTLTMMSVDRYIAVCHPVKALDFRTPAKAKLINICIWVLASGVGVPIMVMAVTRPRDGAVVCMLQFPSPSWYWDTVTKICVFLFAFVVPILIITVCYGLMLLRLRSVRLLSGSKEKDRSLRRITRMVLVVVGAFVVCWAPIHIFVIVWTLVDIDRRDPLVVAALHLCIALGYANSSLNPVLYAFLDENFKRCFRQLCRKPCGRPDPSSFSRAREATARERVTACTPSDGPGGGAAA
Cholecystokinin receptor type A, sequence (P32238 whole entry): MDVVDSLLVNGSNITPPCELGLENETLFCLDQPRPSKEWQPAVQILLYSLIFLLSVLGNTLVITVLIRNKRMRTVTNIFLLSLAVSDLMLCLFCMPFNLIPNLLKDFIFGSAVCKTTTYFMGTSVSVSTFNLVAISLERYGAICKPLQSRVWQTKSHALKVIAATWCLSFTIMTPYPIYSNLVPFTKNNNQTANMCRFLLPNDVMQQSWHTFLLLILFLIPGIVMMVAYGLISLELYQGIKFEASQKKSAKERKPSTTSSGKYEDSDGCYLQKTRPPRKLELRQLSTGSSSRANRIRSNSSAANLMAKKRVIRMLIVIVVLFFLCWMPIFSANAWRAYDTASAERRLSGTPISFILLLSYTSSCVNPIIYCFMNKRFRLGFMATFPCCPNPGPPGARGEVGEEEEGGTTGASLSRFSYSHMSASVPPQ
Beta-2 adrenergic receptor, sequence (P07550 whole entry): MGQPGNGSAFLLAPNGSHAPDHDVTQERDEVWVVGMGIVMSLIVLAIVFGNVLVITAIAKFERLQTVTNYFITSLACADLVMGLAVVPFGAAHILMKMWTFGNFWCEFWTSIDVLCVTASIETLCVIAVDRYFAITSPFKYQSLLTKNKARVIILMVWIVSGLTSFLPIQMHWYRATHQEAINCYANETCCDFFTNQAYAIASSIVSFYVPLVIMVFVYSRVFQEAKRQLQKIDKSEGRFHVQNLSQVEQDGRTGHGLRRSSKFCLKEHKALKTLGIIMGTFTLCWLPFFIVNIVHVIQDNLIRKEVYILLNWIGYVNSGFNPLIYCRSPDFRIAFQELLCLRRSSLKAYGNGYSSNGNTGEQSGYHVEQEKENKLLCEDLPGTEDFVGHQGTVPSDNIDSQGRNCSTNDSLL
Androgen receptor, sequence (P10275 whole entry): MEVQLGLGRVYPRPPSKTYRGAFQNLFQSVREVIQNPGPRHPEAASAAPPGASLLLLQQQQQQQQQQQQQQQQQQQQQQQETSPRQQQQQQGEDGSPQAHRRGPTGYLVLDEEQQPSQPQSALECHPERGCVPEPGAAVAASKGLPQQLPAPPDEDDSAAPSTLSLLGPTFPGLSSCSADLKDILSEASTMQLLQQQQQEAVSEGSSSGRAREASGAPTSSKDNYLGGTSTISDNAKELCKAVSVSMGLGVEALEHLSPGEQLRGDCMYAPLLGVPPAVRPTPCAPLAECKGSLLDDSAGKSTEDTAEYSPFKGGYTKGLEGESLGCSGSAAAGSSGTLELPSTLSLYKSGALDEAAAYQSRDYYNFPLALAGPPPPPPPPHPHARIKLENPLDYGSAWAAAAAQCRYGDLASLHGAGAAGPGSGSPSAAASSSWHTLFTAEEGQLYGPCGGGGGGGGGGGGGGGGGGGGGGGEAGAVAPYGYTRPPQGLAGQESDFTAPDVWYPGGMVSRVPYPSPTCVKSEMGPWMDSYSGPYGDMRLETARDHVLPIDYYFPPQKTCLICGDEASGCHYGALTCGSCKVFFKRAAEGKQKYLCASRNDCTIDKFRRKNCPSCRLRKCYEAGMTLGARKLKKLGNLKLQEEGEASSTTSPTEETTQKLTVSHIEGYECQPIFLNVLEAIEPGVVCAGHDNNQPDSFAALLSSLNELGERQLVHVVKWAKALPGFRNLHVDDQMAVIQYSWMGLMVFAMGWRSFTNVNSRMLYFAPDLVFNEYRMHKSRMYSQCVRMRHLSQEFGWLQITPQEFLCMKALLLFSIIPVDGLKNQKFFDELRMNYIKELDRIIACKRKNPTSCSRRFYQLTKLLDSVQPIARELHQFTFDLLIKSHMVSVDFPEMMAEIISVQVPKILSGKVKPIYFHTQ
Mu-type opioid receptor, sequence (P35372 whole entry): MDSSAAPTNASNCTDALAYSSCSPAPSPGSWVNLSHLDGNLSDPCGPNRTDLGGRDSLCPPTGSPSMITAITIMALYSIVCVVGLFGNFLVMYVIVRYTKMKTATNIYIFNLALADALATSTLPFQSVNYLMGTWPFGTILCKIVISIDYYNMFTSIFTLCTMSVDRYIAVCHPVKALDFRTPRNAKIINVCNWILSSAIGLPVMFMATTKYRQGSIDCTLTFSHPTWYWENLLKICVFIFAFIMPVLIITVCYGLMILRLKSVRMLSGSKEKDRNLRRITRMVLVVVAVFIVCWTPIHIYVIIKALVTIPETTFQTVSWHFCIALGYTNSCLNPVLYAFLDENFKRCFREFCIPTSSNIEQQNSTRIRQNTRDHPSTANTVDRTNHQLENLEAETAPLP

SMILES: CC(C)(O)c1ccc(N2Cc3c(ccnc3-c3ccc(F)cc3OCC(F)(F)F)C2=O)cc1
- EC50 [1]: > 10 µM
- IC50 [1]: > 10 µM
- IC50 [2]: > 10 µM
- EC50 [3]: 0.0076 µM (active)
- EC50 [4]: > 10 µM
- IC50 [4]: > 10 µM
- IC50 [5]: > 10 µM
- EC50 [6]: > 10 µM
- IC50 [6]: > 10 µM
- EC50 [7]: > 10 µM
- IC50 [7]: > 10 µM
- EC50 [8]: > 10 µM
- IC50 [8]: > 10 µM
- EC50 (Androgen receptor): > 10 µM
- IC50 (Androgen receptor): > 10 µM
- EC50 [9]: > 10 µM
- IC50 [9]: > 10 µM
- IC50 [10]: > 10 µM
- EC50 [11]: > 10 µM
- IC50 [11]: > 10 µM
- IC50 [12]: > 10 µM
- IC50 [13]: > 10 µM
- EC50 (Vasopressin V1a receptor): > 10 µM
- IC50 (Vasopressin V1a receptor): > 10 µM
- EC50 (D(1A) dopamine receptor): > 10 µM
- IC50 (D(1A) dopamine receptor): > 10 µM
- EC50 (Histamine H2 receptor): > 10 µM
- IC50 (Histamine H2 receptor): > 10 µM
- EC50 (Cannabinoid receptor 1): > 10 µM
- IC50 (Cannabinoid receptor 1): > 10 µM
- IC50 [14]: > 10 µM
- EC50 (Glucocorticoid receptor): > 10 µM
- IC50 (Glucocorticoid receptor): > 10 µM
- EC50 [15]: > 10 µM
- IC50 [15]: > 10 µM
- IC50 [16]: > 10 µM
- EC50 [17]: > 10 µM
- IC50 [17]: > 10 µM
- IC50 [18]: > 10 µM
- EC50 [19]: > 10 µM
- IC50 [19]: > 10 µM
- EC50 (D(2) dopamine receptor): > 10 µM
- IC50 (D(2) dopamine receptor): > 10 µM
- IC50 [20]: > 10 µM
- IC50 [21]: > 10 µM
- EC50 (Adenosine receptor A2a): > 10 µM
- IC50 (Adenosine receptor A2a): > 10 µM
- IC50 [22]: > 10 µM
- IC50 (Insulin receptor): > 10 µM
- EC50 [23]: > 10 µM
- IC50 [23]: > 10 µM
- EC50 (Cannabinoid receptor 2): > 10 µM
- IC50 (Cannabinoid receptor 2): > 10 µM
- EC50 [24]: > 10 µM
- IC50 [24]: > 10 µM
- IC50 [25]: > 10 µM
- EC50 [26]: > 10 µM
- IC50 [26]: > 10 µM
- IC50 [27]: > 10 µM
- EC50 [28]: > 10 µM
- IC50 [28]: > 10 µM
- EC50 [29]: > 10 µM
- IC50 [29]: > 10 µM
- IC50 (Acetylcholinesterase): > 10 µM
- EC50 (Endothelin-1 receptor): > 10 µM
- IC50 (Endothelin-1 receptor): > 10 µM
- EC50 [30]: 2.8 µM
- IC50 [30]: > 10 µM
- EC50 (Histamine H1 receptor): > 10 µM
- IC50 (Histamine H1 receptor): > 10 µM
- EC50 (Mu-type opioid receptor): > 10 µM
- IC50 (Mu-type opioid receptor): > 10 µM
- EC50 [31]: > 10 µM
- IC50 [31]: > 10 µM
- EC50 [32]: > 10 µM
- IC50 [32]: 6.5 µM
- EC50 [33]: > 10 µM
- IC50 [33]: > 10 µM

SMILES: COc1cccc(-c2nccc3c2CN(c2ccccc2)C3=O)c1
- IC50 [34]: > 100 µM (not active)
- IC50 [35]: > 100 µM (not active)
- EC50 [3]: > 10 µM (not active)
